The results in this text go back to US10315994B2, “Photostable compounds, absorbing compounds and uses thereof” (Commonwealth Scientific and Industrial Research Organisation, priority 2015, dated 2019).

Data set [1] in a line: Photostability of thin films exposed to xenon arc lamp. The settings on record: for Photostability, % remaining after irradiation: exposure to the lamp for 1 h; for % λmax (% of original absorbance remaining): absorbance at λmax, irradiated vs unirradiated; for % λmax (% of original absorbance remaining) / % abs total (% of original absorbance remaining): xenon arc lamp 1 hour, thin film; for % abs total (% of original absorbance remaining): sum of absorbance 290-400 nm. The format is physicochemical. On the procedure:
1 mL of a 3% solution of the test compound (30 mg of test compound in 1 mL solvent) was prepared in a solvent mix made up of 50% EtOH and 25% capric/caprylic triglyceride and 25% C12-C15 alkyl benzoate. 50 μL of this solution (containing 1.5 mg of test compound) was added carefully to the centre of a glass microscope slide and the volatile components left to evaporate in the dark for at least 3 hours to give a liquid film. […] The irradiation was performed in a fume cupboard where the air flow was sufficient to keep sample T<30° C. One hour's exposure represented a calculated radiation dose (using meter) of approximately 100 MED.
In order to calculate the photostability of the test compounds, the exposed slides were placed in a beaker and rinsed with 2×5 mL EtOH, 1×5 mL MeOH. The combined washings were then added to a 100 mL volumetric flask and made up to 100 mL total volume with methanol. The UV absorbance was then measured in a 10 mm cuvette. The percent stability is measured as the ratio of absorbance at λmax for the irradiated sample compared to the unirradiated sample. As a further measure, a comparison of the sum of the absorbance in the 290-400 nm range was calculated.
The thin films are a good surrogate for testing the stability of a candidate in a sunscreen formulation as they use cosmetic emollients as solvent and are formed at cosmetically relevant concentrations.

Data set [2] in a line: UV/visible absorbance characteristics (λmax, λcrit, ε, E 1%,1 cm). The data set is classed as physicochemical.
Where [3] appears, read: Table 1, in M-1 cm-1 (unit assumed).
The mark [4] stands for this setting: Table 2, in M-1 cm-1 (unit assumed).
[5] abbreviates: Table 5, in M-1 cm-1 (unit assumed).

“Also recorded” adds a separate entry of the source.

For the molecule `CC1(C)CCN(C(C)(C)C)C=C1C(=O)c1ccccc1` [Compound 179], the “Photostability, % remaining after irradiation” value (from here on “Photostability, % remaining”) in data set [1] came out at 76%.
Take `Cc1ccc(NC(=O)C2=CN(C(C)(C)CC(C)(C)C)CCC2(C)C)cc1NC(=O)C1=CN(C(C)(C)CC(C)(C)C)CCC1(C)C` [Compound 161]: the “% λmax (% of original absorbance remaining)” value in data set [1] was determined as 55%.
`CC1(C)CCN(c2ccc(N3C=C(C(=O)C(F)(F)F)C(C)(C)CC3)cc2)C=C1C(=O)C(F)(F)F` [Compound 116]: in data set [2] (Table 1), the “E (1%, 1 cm)” value came to 1120; the λcrit is 386 nm; the λmax stood at 367 nm. The ε in data set [2] (setting [3]) is 54658. In data set [2] (Table 2), the “E (1%, 1 cm)” value was 1120; the λcrit is 387 nm; the λmax is recorded as 367 nm. The same molecule came in with a ε in data set [2] (setting [4]) of 54658.
On to `CC1(C)CCN(C(C)(C)C)C=C1C(=O)c1c(F)cccc1F` [Compound 184], for which the “Photostability (%)” value in data set [1] (Table 7, benzoyl derivatives) is 90%.
Take `CC1(C)CCN(c2ccc(N3C=C(C(=O)C(F)(F)C(F)(F)C(F)(F)F)C(C)(C)CC3)cc2)C=C1C(=O)C(F)(F)C(F)(F)C(F)(F)F` [Compound 158]: in data set [2] (Table 1), the “E (1%, 1 cm)” value was found to be 750; the λcrit is given as 388 nm; the λmax is given as 369 nm. Also, in data set [2] (setting [3]), the ε is listed as 51600. In addition, in data set [2] (Table 2), the “E (1%, 1 cm)” value is listed as 750; the λcrit was found to be 388 nm; the λmax is 369 nm. This molecule came in with a ε in data set [2] (setting [4]) of 51600.
For `CC1(C)CCN(C(C)(C)C)C=C1C(=O)/C=C/c1ccc(/C=C/C(=O)C2=CN(C(C)(C)C)CCC2(C)C)cc1` [(2E,2′E)-3,3′-(1,4-phenylene)bis(1-(1-(tert-butyl)-4,4-dimethyl-1,4,5,6-tetrahydropyridin-3-yl)prop-2-en-1-one)], in data set [2] (synthesis section), the “UV λmax” value is listed as 386 nm and the ε worked out at 36404 M⁻¹ cm⁻¹.
As for `CCC(=O)C1=CN(c2ccccc2)CCC1(C)C` [Compound 23], in data set [1], the “% λmax (% of original absorbance remaining)” value turned out to be 30% and the “% abs total (% of original absorbance remaining)” value was determined as 31%.
As to `Cc1c(N2C=C(C(=O)C(F)(F)F)C(C)(C)CC2)cccc1N1C=C(C(=O)C(F)(F)F)C(C)(C)CC1`, in data set [2] (Table 5), the “E (1%, 1 cm)” value was 1495; the λcrit came out at 346 nm; the λmax worked out at 326 nm. In data set [2] (setting [5]), this molecule showed a ε of 75074.
In turn, `CCC(=O)C1=CN(c2ccc(Oc3ccc(N4C=C(C(=O)CC)C(C)(C)CC4)cc3)cc2)CCC1(C)C` [Compound 118] returned a ε in data set [2] (setting [3]) of 56063.
In the case of `CCCCNc1ccc(C(=O)C2=CN(C(C)(C)C)CCC2(C)C)cc1` [Compound 102], the “E (1%, 1 cm)” value in data set [2] (Table 1) came to 628.
For `CC1(C)CCN(C(C)(C)C)C=C1C(=O)CC(=O)c1ccccc1` [Compound 94], in data set [1], the “% λmax (% of original absorbance remaining)” value was 11%; the “Photostability, % remaining” value is reported as “less than 20%”; the “% abs total (% of original absorbance remaining)” value was 21%. For the same molecule, the “Colour change on exposure to irradiation” value in data set [1] (film) is “goes from bright yellow to colourless; also recorded: became perfectly colourless”.
On to `CC(C)CN1C=C(C(=O)C(C)(C)C)C(C)(C)CC1` [Compound 145], for which, in data set [1], the “% λmax (% of original absorbance remaining)” value amounted to 60% and the “% abs total (% of original absorbance remaining)” value is on record as 60%.
For `CC(C)(C)CC(C)(C)N1C=C(C(=O)/C=C/c2ccc(/C=C/C(=O)C3=CN(C(C)(C)CC(C)(C)C)CCC3(C)C)cc2)C(C)(C)CC1`, the “Photostability (%)” value in data set [1] (Table 5) is recorded as below 5%.
For the molecule `CN(C(=O)C1=CN(C(C)(C)C)CCC1(C)C)c1ccccc1` [Compound 70], in data set [1], the “% λmax (% of original absorbance remaining)” value is given as 9% and the “% abs total (% of original absorbance remaining)” value is 14%.
For the molecule `Cc1cc(N2C=C(C(=O)C(F)(F)F)C(C)(C)CC2)ccc1N1C=C(C(=O)C(F)(F)F)C(C)(C)CC1`, in data set [2] (Table 5), the “E (1%, 1 cm)” value is recorded as 1170; the λcrit was determined as 369 nm; the λmax is recorded as 347 nm. This molecule also came in with a ε in data set [2] (setting [5]) of 58853.
Consider `Br.CCC(=O)C1=CN(CC(C)C)CCC1(C)C` [Compound 44], for which, in data set [1], the “% λmax (% of original absorbance remaining)” value stood at 56%; the “Photostability, % remaining” value was 56%; the “% abs total (% of original absorbance remaining)” value was found to be 56%.
For the molecule `CC(C)CN1C=C(C(=O)C(c2ccccc2)c2ccccc2)C(C)(C)CC1` [Compound 16], in data set [1], the “% λmax (% of original absorbance remaining)” value came out at 35% and the “% abs total (% of original absorbance remaining)” value amounted to 37%.
Turning to `CC1(C)CCN(c2ccc(N3C=C(C(=O)C(F)(F)F)C(C)(C)CC3)cc2)CC1` [Compound 117], in data set [2] (Table 1), the “E (1%, 1 cm)” value worked out at 657; the λcrit turned out to be 382 nm; the λmax came out at 349 nm. In data set [2] (setting [3]), this molecule gave a ε of 25890.
